Laboratory results from patent US12595239B2, “Substituted isoxazoline derivatives” (BASF SE, priority 2021, dated 2026).

Assays:
Format in all cases: in vivo
Bemisia argentifolii = assay: B.12 Silverleaf Whitefly (adults), cotton plant spray test; conditions: 72 h, 3 days after treatment, read-out: mortality in comparison with untreated controls
Description: The active compounds were formulated by a Tecan liquid handler in 100% cyclohexanone as a 10,000-ppm solution supplied in tubes. The 10,000-ppm solution was serially diluted in 100% cyclohexanone to make interim solutions. These served as stock solutions for which final dilutions were made by the Tecan in 50% acetone:50% water (v/v) into 5 or 10 ml glass vials. A nonionic surfactant (Kinetic®) was included in the solution at a volume of 0.01% (v/v). The vials were then inserted into an automated electrostatic sprayer equipped with an atomizing nozzle for application to plants/insects. Cotton plants at the cotyledon stage (one plant per pot) were sprayed by an automated electrostatic plant sprayer equipped with an atomizing spray nozzle. The plants were dried in the sprayer fume hood and then removed from the sprayer. Each pot was placed into a plastic cup and about 10 to 12 whitefly adults (approximately 3-5 days old) were introduced. The insects were collected using an aspirator and a nontoxic Tygon® tubing connected to a barrier pipette tip. The tip, containing the collected insects, was then gently inserted into the soil containing the treated plant, allowing insects to crawl out of the tip to reach the foliage for feeding. Cups were covered with a reusable screened lid. Test plants were maintained in a growth room at about 25° C. and about 20-40% relative humidity for 3 days, avoiding direct exposure to fluorescent light (14:10 light:dark photoperiod) to prevent trapping of heat inside the cup. Mortality was assessed 3 days after treatment, compared to untreated control plants.

Heliothis virescens = assay: B.4 Tobacco Budworm, microtiter plate diet test; conditions: 120 h, egg and larval mortality, 5 days, read-out: mortality in comparison with untreated controls
Description: For evaluating control of Tobacco Budworm, the test unit consisted of 96-well-microtiter plates containing an insect diet and 15-25 H. virescens eggs. The compounds were formulated using a solution containing 75% v/v water and 25% v/v DMSO. Different concentrations of formulated compounds were sprayed onto the insect diet at 10 μl, using a custom-built micro atomizer, at two replications. After application, microtiter plates were incubated at about 28±1° C. and about 80±5% relative humidity for 5 days. Egg and larval mortality was then visually assessed.

Myzus persicae = assay: B.3 Green Peach Aphid (mixed life stages), systemic artificial diet test; conditions: 72 h, treated aphid diet, 3 days, read-out: mortality in comparison with untreated controls
Text: For evaluating control of Green Peach Aphid through systemic means the test unit consisted of 96-well-microtiter plates containing liquid artificial diet under an artificial membrane. The compounds were formulated using a solution containing 75% v/v water and 25% v/v DMSO. Different concentrations of formulated compounds were pipetted into the aphid diet, using a custom-built pipette, at two replications. After application, 5-8 adult aphids were placed on the artificial membrane inside the microtiter plate wells. The aphids were then allowed to suck on the treated aphid diet and incubated at about 23±1° C. and about 50±5% relative humidity for 3 days. Aphid mortality and fecundity was then visually assessed.

Dichromothrips corbetti = assay: B.7 Orchid Thrips, floral-immersion test; conditions: adult thrips, 72 hours after treatment, read-out: mortality in comparison with untreated controls
Summary of the method: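 Orchid petals were dipped in compound diluted in 1:1 acetone:water with 0.01% v/v Kinetic, dried, then sealed with about 20 lab-colony adult thrips. Arenas were held in the dark at about 28 °C, and percent mortality was scored 72 h after treatment.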

Spodoptera eridania = assay: B.11 Southern Armyworm 2nd instar larvae, lima bean foliar spray test; conditions: 96 h, 4 days after treatment, read-out: mortality in comparison with untreated controls
Summary of the method: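 Compounds diluted in 50% acetone/water with 0.01% nonionic surfactant and electrostatically sprayed onto lima bean plants (Sieva) at 1st true leaf stage. After drying, 10–11 larvae per bagged pot, held at about 25 °C, 20–40% RH, 14:10 photoperiod. Mortality and reduced feeding scored at 4 days versus untreated plants.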

Nephotettix virescens = assay: B.9 Rice Green Leafhopper, rice seedling spray test; conditions: adults, after 72 hours, read-out: mortality in comparison with untreated controls
Description: Four to five-week old rice seedlings with cut upper leaf portion were cleaned and washed 24 hours before spraying. The active compounds were formulated in 1:1 acetone:water (vol:vol), and 0.01% vol/vol surfactant (Kinetic) was added. Potted rice seedlings were sprayed with 5-6 ml test solution, air dried, covered with Mylar cages and inoculated with 10 adults. Treated rice plants were kept at about 28-29° C. and relative humidity of about 50-60%. Percent mortality was recorded after 72 hours.

Tetranychus kanzawai = assay: B.10 Red Spider Mite, cowpea bean spray test; conditions: 72 hours after treatment, read-out: mortality in comparison with untreated controls
Description: The active compound was dissolved at the desired concentration in a mixture of 1:1 (vol:vol) distilled water:acetone. Add surfactant (Kinetic) was added at a rate of 0.01% (vol/vol). The test solution was prepared at the day of use. Potted cowpea beans of 4-5 days of age were cleaned with tap water and sprayed with I-2 ml of the test solution using air driven DeVilbiss® hand atomizer at 20-30 psi (≈1,38 to 2,07 bar). The treated plants were allowed to air dry and afterwards inoculated with 30 or more mites by clipping a cassava leaf section from rearing population. Treated plants were placed inside a holding room at about 25-26° C. and about 65-70% relative humidity. Percent mortality was assessed 72 hours after treatment.

Aedes aegypti = assay: whole plant or invertebrate; conditions: 48 h, larval mortality, 2 days, read-out: mortality in comparison with untreated controls
Description: For evaluating control of Yellow Fever Mosquito, the test unit consisted of 96-well-microtiter plates containing 200 μl of tap water per well and 5-15 freshly hatched A. aegypti larvae. The active compounds were formulated using a solution containing 75% (v/v) water and 25% (v/v) DMSO. Different concentrations of formulated compounds or mixtures were sprayed onto the insect diet at 2.5 μl, using a custom-built micro atomizer, at two replications.
After application, microtiter plates were incubated at 28±1° C., 80±5% RH for 2 days. Larval mortality was then visually assessed.

O=C(Nc1ncc(F)cc1F)c1cc(OC2=NOC(c3cc(Cl)c(F)c(Cl)c3)(C(F)(F)F)C2)ccc1Cl (centres unmarked) [II-8, 2-chloro-5-[[5-(3,5-dichloro-4-fluoro-phenyl)-5-(trifluoromethyl)-4H-isoxazol-3-yl]oxy]-N-(3,5-difluoro-2-pyridyl)benzamide]
≥ 75%: mortality at 300 ppm (Bemisia argentifolii) | mortality at 2500 ppm (Heliothis virescens) | mortality at 2500 ppm (Myzus persicae) | mortality at 300 ppm (Dichromothrips corbetti) | mortality at 300 ppm (Spodoptera eridania) | mortality at 300 ppm (Nephotettix virescens) | mortality at 300 ppm (Tetranychus kanzawai) | mortality at 2500 ppm (Aedes aegypti)
